Reference: patent publication US20190093170A1, “USE OF TRANSLATIONAL PROFILING TO IDENTIFY TARGET MOLECULES FOR THERAPEUTIC TREATMENT” (THE REGENTS OF THE UNIVERSITY OF CALIFORNIA, priority 2013, published 2019)

Tested on: PC3 human prostate cancer cells
Assay: RNA-seq mRNA abundance (part of ribosome profiling experiment);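 further: average poly(A) RNA-seq read density per codon over the coding sequence, excluding 15 initial and 5 final codons, mapped to hg19 transcripts, taken as mRNA abundance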
Format: cell-based
Conditions: for Rapamycin mRNA: 3-hour treatment with rapamycin (50 nM) in PC3 cells
Protocol: Cells were subsequently treated with cycloheximide (100 μg ml^−1; Sigma) and detergent lysis was performed in the dish. The lysate was treated with DNase and clarified, and a sample was taken for RNA-seq analysis. Lysates were subjected to ribosome footprinting by nuclease treatment. Ribosome-protected fragments were purified, and deep sequencing libraries were generated from these fragments, as well as from poly(A) mRNA purified from non-nuclease-treated lysates. These libraries were analyzed by sequencing on an Illumina GAII.
Ribosome footprint and RNA-seq sequencing reads were aligned against a library of transcripts from the UCSC Known Genes database GRCh37/hg19. The first 25 nucleotides of each read were aligned using Bowtie and this initial alignment was then extended to encompass the full fragment-derived portion of the sequencing read while excluding the linker sequence. Read density profiles were then constructed for the canonical transcript of each gene, using only reads with 0 or 1 total mismatches between the read sequence and the reference sequence, comprised of the transcript fragment followed by the linker sequence. Footprint reads were assigned to an A site nucleotide at position +15 to +17 of the alignment, based on the total fragment length; mRNA reads were assigned to the first nucleotide of the alignment. The average read density per codon was then computed for the coding sequence of each transcript, excluding the first 15 and last 5 codons, which can display atypical ribosome accumulation.
Average read density was used as a measure of mRNA abundance (RNA-seq reads) and of protein synthesis (ribosome profiling reads). For most analyses, genes were filtered to require at least 256 reads in the relevant RNA-seq samples. Translational efficiency was computed as the ratio of ribosome footprint read density to RNA-seq read density, scaled to normalize the translational efficiency of the median gene to 1.0 after excluding regulated genes (log 2 fold-change+1.5 after normalizing for the all-gene median). Changes in protein synthesis, mRNA abundance and translational efficiency were similarly computed as the ratio of read densities between different samples, normalized to give the median gene a ratio of 1.0. This normalization corrects for differences in the absolute number of sequencing reads obtained for different libraries.

CO[C@H]1C[C@@H]2CC[C@@H](C)[C@@](O)(O2)C(=O)C(=O)N2CCCC[C@H]2C(=O)O[C@H]([C@H](C)C[C@@H]2CC[C@@H](O)[C@H](OC)C2)CC(=O)[C@H](C)/C=C(\C)[C@@H](O)[C@@H](OC)C(=O)[C@H](C)C[C@H](C)/C=C/C=C/C=C/1C [Rapamycin, rapamycin]
Rapamycin mRNA (gene ACD): −0.96 | mRNA (gene ACTG1): 0.02 | mRNA (gene AGRN): 0.01 | mRNA (gene ALKBH7): 0.06 | mRNA (gene AP2A1): 0.09 | mRNA (gene ARD1A): −0.04 | mRNA (gene ATP5G2): 0.29 | Rapamycin mRNA (gene C17orf28): −0.44 | mRNA (gene C21orf66): −0.30 | Rapamycin mRNA (gene CCNA1): −0.51 | mRNA (gene CCNI): 0.29 | mRNA (gene CD44): 0.34 | mRNA (gene CIRBP): 0.14 | mRNA (gene CLPTM1): 0.07 | mRNA (gene COL6A2): −0.08 | mRNA (gene CRTAP): 0.29 | Rapamycin mRNA (gene DDX51): −0.24 | Rapamycin mRNA (gene DGCR2): −0.66 | mRNA (gene ECSIT): −0.04 | Rapamycin mRNA (gene EEF1A1): 0.46 | mRNA (gene EEF1A2): 0.03 | mRNA (gene EEF1D): 0.18 | mRNA (gene EEF1G): 0.21 | mRNA (gene EEF2): 0.39 | mRNA (gene EIF3H): 0.16 | mRNA (gene EIF3L): 0.28 | mRNA (gene EIF4B): 0.55 | mRNA (gene EVPL): −0.08 | mRNA (gene FAM83H): −0.17 | mRNA (gene FAM128B): 0.06 | mRNA (gene FASN): −0.37 | mRNA (gene GLTSCR2): 0.31 | mRNA (gene GNB2L1): 0.19 | Rapamycin mRNA (gene GTPBP3): −0.73 | mRNA (gene HNRNPA1): 0.18 | mRNA (gene HSPA8): −0.21 | mRNA (gene IMPDH2): 0.11 | mRNA (gene LAMA5): −0.32 | mRNA (gene LMF2): 0.22 | Rapamycin mRNA (gene MAPK6): 0.13 | Rapamycin mRNA (gene MAPKAPK2): −0.21 | mRNA (gene MTA1): 0.00 | mRNA (gene NCLN): −0.05 | Rapamycin mRNA (gene NFATC21P): −0.16 | Rapamycin mRNA (gene NR2F1): 0.05 | mRNA (gene PABPC1): 0.35 | mRNA (gene PABPC4): 0.24 | mRNA (gene PACS1): 0.07 | mRNA (gene PFDN5): 0.11 | mRNA (gene PGLS): 0.03 | mRNA (gene PGM1): 0.40 | mRNA (gene PNKP): −0.24 | Rapamycin mRNA (gene PRKD3): −0.22 | mRNA (gene PTGES2): −0.19 | mRNA (gene RABGGTB): −0.20 | mRNA (gene RPL3): 0.18 | mRNA (gene RPL4): 0.22 | mRNA (gene RPL7): 0.15 | mRNA (gene RPL7A): 0.17 | mRNA (gene RPL9): 0.16 | mRNA (gene RPL10): 0.09 | mRNA (gene RPL10A): 0.16 | mRNA (gene RPL11): 0.09 | mRNA (gene RPL12): 0.07 | mRNA (gene RPL13): 0.14 | mRNA (gene RPL13A): 0.15 | mRNA (gene RPL15): 0.11 | mRNA (gene RPL18A): 0.17 | mRNA (gene RPL19): 0.14 | mRNA (gene RPL21): 0.14 | mRNA (gene RPL22): 0.08 | mRNA (gene RPL24): 0.11 | mRNA (gene RPL26): 0.15 | mRNA (gene RPL27): 0.05 | mRNA (gene RPL27A): 0.06 | mRNA (gene RPL28): 0.24 | Rapamycin mRNA (gene RPL28): 0.64 | mRNA (gene RPL31): −0.02 | mRNA (gene RPL32): 0.22 | mRNA (gene RPL34): 0.11 | mRNA (gene RPL36A): 0.13 | mRNA (gene RPL37A): 0.08 | mRNA (gene RPL39): 0.17 | Rapamycin mRNA (gene RPL39): 0.30 | mRNA (gene RPL41): 0.04 | mRNA (gene RPLP0): 0.15 | mRNA (gene RPLP1): 0.28 | mRNA (gene RPLP2): 0.26 | mRNA (gene RPS2): 0.07 | mRNA (gene RPS3): 0.22 | mRNA (gene RPS3A): 0.22 | mRNA (gene RPS4X): 0.18 | mRNA (gene RPS5): 0.14 | mRNA (gene RPS7): 0.11 | mRNA (gene RPS9): 0.10 | mRNA (gene RPS12): 0.11 | mRNA (gene RPS13): 0.07 | mRNA (gene RPS14): 0.10 | mRNA (gene RPS15): −0.01 | mRNA (gene RPS15A): 0.07 | mRNA (gene RPS19): 0.15 | mRNA (gene RPS20): 0.18 | Rapamycin mRNA (gene RPS20): 0.14 | mRNA (gene RPS21): −0.01 | mRNA (gene RPS25): 0.04 | mRNA (gene RPS27): 0.10 | Rapamycin mRNA (gene RPS27): 0.07 | mRNA (gene RPS27A): 0.16 | mRNA (gene RPS28): 0.01 | Rapamycin mRNA (gene SDCCAG10): −0.19 | mRNA (gene SLC19A1): -0.36 | mRNA (gene TKT): 0.02 | mRNA (gene TPT1): 0.24 | mRNA (gene TSC2): −0.15 | mRNA (gene UBA52): 0.12 | Rapamycin mRNA (gene UBTD2): 0.19 | Rapamycin mRNA (gene UCHL5): −0.08 | Rapamycin mRNA (gene VHL): −0.23 | mRNA (gene VIM): 0.36 | mRNA (gene YB1): 0.11
